According to doi:10.1101/2025.09.30.679521v1, “Crystallographic characterisation and development of bi-substrate inhibitors of coronavirus nsp14 methyltransferase” (biorxiv, 2025):
Like-named read-outs stand apart in the source and are kept apart here.

Legend:
[1] = biological target: HCoV-NL63 nsp14 (Human coronavirus NL63, UniProt P0C6X5); assay: RapidFire MS methyltransferase assay; type: biochemical
Excerpt: RapidFire MS methyltransferase assay on HCoV-NL63 nsp14

[2] = biological target: human RNMT (Homo sapiens, UniProt O43148); assay: RNMT methyltransferase assay (Gray et al.); type: biochemical
Chain of human RNMT (O43148 whole entry): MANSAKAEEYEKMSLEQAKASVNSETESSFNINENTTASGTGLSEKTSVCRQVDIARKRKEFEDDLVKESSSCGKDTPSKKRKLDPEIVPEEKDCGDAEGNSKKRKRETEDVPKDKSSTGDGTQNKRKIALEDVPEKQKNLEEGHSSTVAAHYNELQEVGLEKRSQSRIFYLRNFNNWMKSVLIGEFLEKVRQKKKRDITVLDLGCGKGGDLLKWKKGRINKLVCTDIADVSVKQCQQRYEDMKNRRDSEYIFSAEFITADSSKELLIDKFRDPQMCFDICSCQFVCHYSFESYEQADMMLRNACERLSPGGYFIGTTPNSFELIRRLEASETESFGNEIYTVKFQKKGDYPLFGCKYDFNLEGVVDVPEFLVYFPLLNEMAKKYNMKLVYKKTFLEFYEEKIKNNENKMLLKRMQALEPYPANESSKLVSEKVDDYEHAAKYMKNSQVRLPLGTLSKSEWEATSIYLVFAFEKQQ
Excerpt: RNMT methyltransferase assay (Gray et al.) on human RNMT

[3] = biological target: T1, HCoV-229E nsp14 (Human coronavirus 229E, UniProt P0C6X1); assay: RapidFire MS methyltransferase assay; type: biochemical
T1 construct: gene rep
T1 sequence (P0C6X1 5593-6110): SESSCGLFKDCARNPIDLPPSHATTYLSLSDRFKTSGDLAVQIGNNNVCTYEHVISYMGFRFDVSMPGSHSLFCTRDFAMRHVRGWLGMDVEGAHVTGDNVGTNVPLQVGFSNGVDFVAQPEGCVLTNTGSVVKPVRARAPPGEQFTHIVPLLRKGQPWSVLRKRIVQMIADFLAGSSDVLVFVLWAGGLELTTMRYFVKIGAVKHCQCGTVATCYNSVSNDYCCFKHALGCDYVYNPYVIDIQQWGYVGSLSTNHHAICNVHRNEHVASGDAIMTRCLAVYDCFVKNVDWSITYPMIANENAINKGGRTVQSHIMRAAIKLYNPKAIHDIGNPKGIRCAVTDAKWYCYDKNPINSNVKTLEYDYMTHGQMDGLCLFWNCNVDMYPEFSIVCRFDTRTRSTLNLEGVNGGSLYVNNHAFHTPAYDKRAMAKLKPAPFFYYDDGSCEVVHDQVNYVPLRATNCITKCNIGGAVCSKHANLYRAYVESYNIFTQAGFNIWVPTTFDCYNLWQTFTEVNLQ
Excerpt: RapidFire MS methyltransferase assay on HCoV-229E nsp14

[4] = biological target: T2, SARS-CoV-2 nsp14 (Severe acute respiratory syndrome coronavirus 2, UniProt P0DTD1); assay: RapidFire MS methyltransferase assay; type: biochemical
T2 construct: gene rep
Excerpt: RapidFire MS methyltransferase assay on SARS-CoV-2 nsp14

[5] = in vitro; parameters: mouse liver microsomal stability; details: liver microsomes; Mouse liver microsomes; read-out: Mouse liver Mic T1/2 / min
Excerpt: We initiated our structure-activity relationship (SAR) studies by investigating various replacements for the benzothiazole group, compounds 2-17, Table 1. […] Relatively flat SAR is observed across this subset of compounds, indeed a 6,5 or 6,6 aromatic system with the appropriate connectivity as compound 1 display relatively similar potencies. […] In general, the mouse microsomal clearance was rather low for this set of molecules, with no significant instabilities introduced, with perhaps the exception of compound 4. With no significant advantages in either potency or mouse microsomal clearance (Table S2) identified for this subset, the benzothiazole was taken forward into subsequent SAR studies. Table 2. Enzymatic inhibition against SARS-CoV-2 nsp14, human RNMT, CHI-logD and mouse microsomal stability.

[6] = physchem
[7] = physchem; remark: listed apart in the source

Chain of HCoV-NL63 nsp14 (P0C6X5 5568-6085): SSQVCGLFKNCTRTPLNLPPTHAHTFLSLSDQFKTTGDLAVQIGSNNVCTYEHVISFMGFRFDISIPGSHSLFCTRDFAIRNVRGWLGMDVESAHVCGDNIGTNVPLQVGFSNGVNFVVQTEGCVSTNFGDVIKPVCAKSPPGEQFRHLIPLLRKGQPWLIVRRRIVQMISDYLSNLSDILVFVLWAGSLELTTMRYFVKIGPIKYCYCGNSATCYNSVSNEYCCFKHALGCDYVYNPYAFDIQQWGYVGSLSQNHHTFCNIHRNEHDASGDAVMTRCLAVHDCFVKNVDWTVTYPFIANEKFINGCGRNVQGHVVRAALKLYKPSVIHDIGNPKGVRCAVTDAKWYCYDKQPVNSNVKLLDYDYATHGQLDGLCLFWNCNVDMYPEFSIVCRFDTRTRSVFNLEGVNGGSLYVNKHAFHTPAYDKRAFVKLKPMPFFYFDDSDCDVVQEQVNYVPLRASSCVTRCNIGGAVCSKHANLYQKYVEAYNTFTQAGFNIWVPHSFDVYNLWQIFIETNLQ

Row | Compound | IC50 ([1]; read-out: IC50) | IC50 [2] | IC50 ([3]; read-out: IC50) | IC50 ([4]; read-out: IC50) | half-life [5] | logD [7] | also measured
1 | Nc1ncnc2c1ncn2[C@@H]1O[C@H](CSc2nc3ccccc3s2)[C@@H](O)[C@H]1O [compound 1] | 190 ± 30 nM | > 100000 nM | 310 ± 8 nM | 420 ± 300 nM | > 30 min | – | logD [6]: 1.2
2 | Cc1ccc2nc(SC[C@H]3O[C@@H](n4cnc5c(N)ncnc54)[C@H](O)[C@@H]3O)sc2c1 [compound 2] | – | > 100000 nM | – | – | > 30 min | – | IC50 [1]: 110 ± 20 nM; IC50 [3]: 410 ± 80 nM; IC50 [4]: 260 ± 70 nM; logD [6]: 1.6
3 | Cc1ccc2sc(SC[C@H]3O[C@@H](n4cnc5c(N)ncnc54)[C@H](O)[C@@H]3O)nc2c1 [compound 3] | – | > 100000 nM | – | – | 25.7 min | – | IC50 [4]: 1200 ± 150 nM; logD [6]: 1.6
4 | CCCCCCSC[C@H]1O[C@@H](n2cnc3c(N)ncnc32)[C@H](O)[C@@H]1O [compound 4] | – | > 100000 nM | – | – | 13.2 min | – | IC50 [1]: 3300 ± 300 nM; IC50 [3]: 9000 ± 1400 nM; IC50 [4]: 6100 ± 1100 nM; logD [6]: 2
5 | CCNC(=O)NCCSC[C@H]1O[C@@H](n2cnc3c(N)ncnc32)[C@H](O)[C@@H]1O [compound 5] | – | > 100000 nM | – | 1900 ± 300 nM | > 30 min | – | logD [6]: -0.2
6 | Nc1ncnc2c1ncn2[C@@H]1O[C@H](CSc2ccc3ccccc3c2)[C@@H](O)[C@H]1O [compound 6] | 230 ± 20 nM | > 100000 nM | 470 ± 60 nM | 310 ± 120 nM | 26.9 min | – | logD [6]: 1.8
7 | Nc1ncnc2c1ncn2[C@@H]1O[C@H](CSc2ccc3ccccc3n2)[C@@H](O)[C@H]1O [compound 7] | 240 ± 80 nM | > 100000 nM | 550 ± 80 nM | 330 ± 90 nM | > 30 min | – | logD [6]: 1.3
8 | Nc1ncnc2c1ncn2[C@@H]1O[C@H](CSc2nccs2)[C@@H](O)[C@H]1O [compound 11, (2R,3R,4S,5S)-2-(6-Aminopurin-9-yl)-5-(thiazol-2-ylsulfanylmethyl) tetrahydrofuran-3,4-diol] | – | – | – | – | > 30 min | – | –
9 | Nc1ncnc2c1ncn2[C@@H]1O[C@H](CSc2nccs2)[C@@H](O)[C@H]1O [compound 11] | > 50000 nM | > 100000 nM | > 50000 nM | > 100000 nM | – | – | logD [6]: 0.3
10 | Nc1ncnc2c1ncn2[C@@H]1O[C@H](CSc2cccn3cncc23)[C@@H](O)[C@H]1O [compound 12] | 9500 ± 2300 nM | 9300 nM | 790 ± 60 nM | 15000 ± 12000 nM | – | – | logD [6]: 0.3
11 | Nc1ncnc2c1ncn2[C@@H]1O[C@H](CSc2nc3ccccc3o2)[C@@H](O)[C@H]1O [compound 14, (2R,3R,4S,5S)-2-(6-Amino-9H-purin-9-yl)-5-((benzo[d]oxazol-2-ylthio)methyl) tetrahydrofuran-3,4-diol] | – | – | – | – | > 30 min | – | –
12 | Nc1ncnc2c1ncn2[C@@H]1O[C@H](CSc2nc3ccccc3o2)[C@@H](O)[C@H]1O [compound 14] | 660 ± 400 nM | > 100000 nM | 950 ± 20 nM | 670 ± 20 nM | – | 1 | –
13 | Nc1ncnc2c1ncn2[C@@H]1O[C@H](CSc2nc3ccccc3[nH]2)[C@@H](O)[C@H]1O [compound 15, (2S,3S,4R,5R)-2-(((1H-Benzo[d]imidazol-2-yl)thio)methyl)-5-(6-amino-9H-purin-9-yl) tetrahydrofuran-3,4-diol] | – | – | – | – | > 30 min | – | –
14 | Nc1ncnc2c1ncn2[C@@H]1O[C@H](CSc2nc3ccccc3[nH]2)[C@@H](O)[C@H]1O [compound 15] | 480 ± 100 nM | > 100000 nM | 860 ± 200 nM | 590 ± 110 nM | – | 0.3 | –
15 | Nc1ncnc2c1ncn2[C@@H]1O[C@H](CSc2cccc3cn[nH]c23)[C@@H](O)[C@H]1O [compound 16] | – | > 100000 nM | – | – | – | 0.7 | IC50 ([4]; SAM and RNA cap substrate at KM (SAM 1.0 µM), unreliable (footnote: one IC50 measured > 100 µM)): 79000 ± 18000 nM
16 | Nc1ncnc2c1ncn2[C@@H]1O[C@H](CSc2ccn3cncc3c2)[C@@H](O)[C@H]1O [compound 17, (2R,3R,4S,5S)-2-(6-Aminopurin-9-yl)-5-(imidazo[1,5-a]pyridine-7-ylsulfanylmethyl) tetrahydrofuran-3,4-diol] | – | – | – | – | 11.1 min | – | –
17 | Nc1ncnc2c1ncn2[C@@H]1O[C@H](CSc2ccn3cncc3c2)[C@@H](O)[C@H]1O [compound 17] | 6400 ± 1600 nM | 31100 nM | 1100 ± 150 nM | 6900 ± 4600 nM | – | 0.1 | –

Row | Compound | IC50 ([1]; read-out: IC50) | IC50 [2] | IC50 ([3]; read-out: IC50) | IC50 ([4]; read-out: IC50) | half-life [5] | logD [7] | also measured
18 | CNc1ncnc2c1ncn2[C@@H]1O[C@H](CSc2nc3ccccc3s2)[C@@H](O)[C@H]1O [compound 18, (2S,3S,4R,5R)-2-(1,3-Benzothiazol-2-ylsulfanylmethyl)-5-[6-(methylamino)purin-9-yl]tetrahydrofuran-3,4-diol] | – | – | – | – | 19.7 min | – | –
19 | Nc1ncnc2c1ccn2[C@@H]1O[C@H](CSc2nc3ccccc3s2)[C@@H](O)[C@H]1O [compound 27] | 39 ± 6 nM | > 100000 nM | 41 ± 4 nM | 55 ± 20 nM | > 30 min | 1.6 | –
20 | Nc1ncnc2c1ccn2[C@@H]1C[C@H](CSc2nc3ccccc3s2)[C@@H](O)[C@H]1O [compound 28] | – | – | – | – | > 30 min | 1.8 | –
21 | N#Cc1cn([C@@H]2O[C@H](CSc3nc4ccccc4s3)[C@@H](O)[C@H]2O)c2ncnc(N)c12 [compound 29] | – | > 100000 nM | – | – | 12.1 min | 1.8 | IC50 [1]: 73 ± 26 nM; IC50 [3]: 100 ± 7 nM; IC50 [4]: 170 ± 20 nM
22 | C#Cc1cn([C@@H]2O[C@H](CSc3nc4ccccc4s3)[C@@H](O)[C@H]2O)c2ncnc(N)c12 [compound 30] | – | > 100000 nM | – | – | 10.1 min | 2 | IC50 [1]: 29 ± 9 nM; IC50 [3]: 33 ± 2 nM; IC50 [4]: 54 ± 10 nM
23 | CCc1cn([C@@H]2O[C@H](CSc3nc4ccccc4s3)[C@@H](O)[C@H]2O)c2ncnc(N)c12 [compound 31, (2R,3R,4S,5S)-2-(4-amino-5-ethyl-pyrrolo[2,3-d]pyrimidin-7-yl) -5-(1,3-benzothiazol-2-ylsulfanylmethyl)tetrahydrofuran-3,4-diol] | – | – | – | – | 3.9 min | – | –
24 | CCc1cn([C@@H]2O[C@H](CSc3nc4ccccc4s3)[C@@H](O)[C@H]2O)c2ncnc(N)c12 [compound 31] | 52 ± 9 nM | > 100000 nM | 120 ± 10 nM | 250 ± 200 nM | – | 2.1 | –
25 | Nc1ncnn2c([C@@H]3O[C@H](CSc4nc5ccccc5s4)[C@@H](O)[C@H]3O)ccc12 [compound 35, (2S,3R,4S,5S)-2-(4-Aminopyrrolo[2,1-f][1,2,4]triazin-7-yl)-5-(1,3-benzothiazol-2-ylsulfanylmethyl)tetrahydrofuran-3,4-diol] | – | – | – | – | > 30 min | – | –
26 | Nc1ncnn2c([C@@H]3O[C@H](CSc4nc5ccccc5s4)[C@@H](O)[C@H]3O)ccc12 [compound 35] | 100 ± 20 nM | – | 190 ± 40 nM | 370 ± 130 nM | – | 1.5 | –
27 | Cc1ccc2nc(SC[C@H]3O[C@@H](c4ccc5c(N)ncnn45)[C@H](O)[C@@H]3O)sc2c1 [compound 36, (2S,3R,4S,5S)-2-(4-Aminopyrrolo[2,1-f][1,2,4]triazin-7-yl)-5-[(6-methyl-1,3-benzothiazol-2-yl)sulfanylmethyl]tetrahydrofuran-3,4-diol] | – | – | – | – | 18 min | – | –
28 | Cc1ccc2nc(SC[C@H]3O[C@@H](c4ccc5c(N)ncnn45)[C@H](O)[C@@H]3O)sc2c1 [compound 36] | – | – | – | 340 ± 140 nM | – | 1.9 | –
29 | Nc1ncnn2c([C@@H]3O[C@H](CSc4ccc5ccccc5c4)[C@@H](O)[C@H]3O)ccc12 [compound 37, (2S,3R,4S,5S)-2-(4-Aminopyrrolo[2,1-f][1,2,4]triazin-7-yl)-5-(2-naphthylsulfanylmethyl) tetrahydrofuran-3,4-diol] | – | – | – | – | 13.6 min | – | –
30 | Nc1ncnn2c([C@@H]3O[C@H](CSc4ccc5ccccc5c4)[C@@H](O)[C@H]3O)ccc12 [compound 37] | – | – | – | 200 ± 70 nM | – | 2.2 | –
31 | Nc1ncnn2c([C@@H]3O[C@H](CSc4ccc5ccccc5n4)[C@@H](O)[C@H]3O)ccc12 [compound 38, (2S,3R,4S,5S)-2-(4-Aminopyrrolo[2,1-f][1,2,4]triazin-7-yl)-5-(2-quinolylsulfanylmethyl) tetrahydrofuran-3,4-diol] | – | – | – | – | > 30 min | – | –
32 | Nc1ncnn2c([C@@H]3O[C@H](CSc4ccc5ccccc5n4)[C@@H](O)[C@H]3O)ccc12 [compound 38] | – | – | – | 680 ± 110 nM | – | 1.7 | –
33 | Nc1ncnn2c([C@@H]3O[C@H](CCc4nc5ccccc5s4)[C@@H](O)[C@H]3O)ccc12 [compound 39, (2S,3R,4S,5R)-2-(4-Aminopyrrolo[2,1-f][1,2,4]triazin-7-yl)-5-[2-(1,3-benzothiazol-2-yl)ethyl]tetrahydrofuran-3,4-diol] | – | – | – | – | > 30 min | – | –
34 | Nc1ncnn2c([C@@H]3O[C@H](CCc4nc5ccccc5s4)[C@@H](O)[C@H]3O)ccc12 [compound 39] | 760 ± 300 nM | – | 2300 ± 50 nM | 500 ± 400 nM | – | 1.3 | –
